Measurements taken from ChEMBL document CHEMBL1201862, “PubChem BioAssay data set” (2004).
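96-well plates; 48 h exposure; 5 concentrations. Endpoints by linear interpolation between flanking doses. Not reached: highest tested concentration assigned. The concentration for 50% growth inhibition is given as GI50.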 The source made the active and inactive calls. Rule as the data show it: active = GI50 up to about 1.1 µM and inactive = higher.

Legend:
Assay in all cases: growth of human tumour cells (NCI), 48 h
A498 = system: A498
A549 = system: A549
COLO 205 = system: COLO 205
DMS-273 = system: DMS-273
EKVX = system: EKVX
HCC 2998 = system: HCC 2998
HOP-92 = system: HOP-92
HT-29 = system: HT-29
IGROV-1 = system: IGROV-1
K562 = system: K562
KM12 = system: KM12
M14 = system: M14
OVCAR-8 = system: OVCAR-8
SK-MEL-5 = system: SK-MEL-5
SK-OV-3 = system: SK-OV-3
UACC-62 = system: UACC-62
UO-31 = system: UO-31
SK-MEL-28 = system: SK-MEL-28

Measured: GI50

C[n+]1c2ccccc2c(NC(CCC(N)=O)C(=O)O)c2ccccc21 (stereo unspecified)
inactive: A498 > 100 µM | A549 > 100 µM | COLO 205 > 100 µM | DMS-273 > 100 µM | EKVX > 100 µM | HCC 2998 > 100 µM | HOP-92 > 100 µM | HT-29 > 100 µM | IGROV-1 > 100 µM | K562 > 100 µM | KM12 73.5 µM | M14 > 100 µM | OVCAR-8 > 100 µM | SK-MEL-5 > 100 µM | SK-OV-3 > 100 µM | UACC-62 > 100 µM | UO-31 > 100 µM

CCOC(=O)Cn1c2ccccc2c(=O)c2cc(C)c(C)c(C#N)c21
inactive: A549 > 100 µM | COLO 205 > 100 µM | DMS-273 > 100 µM | EKVX > 100 µM | HCC 2998 > 100 µM | HOP-92 21.8 µM | HT-29 > 100 µM | IGROV-1 > 100 µM | OVCAR-8 84.3 µM | SK-MEL-28 > 100 µM | SK-OV-3 55.5 µM | UACC-62 > 100 µM | UO-31 68.5 µM

Nc1c2ccccc2nc2nccnc12
inactive: A498 > 100 µM | A549 > 100 µM | COLO 205 > 100 µM | DMS-273 > 100 µM | EKVX 38.4 µM | HCC 2998 > 100 µM | HOP-92 > 100 µM | HT-29 > 100 µM | IGROV-1 60.4 µM | K562 > 100 µM | KM12 > 100 µM | M14 > 100 µM | OVCAR-8 > 100 µM | SK-MEL-28 > 100 µM | SK-MEL-5 > 100 µM | SK-OV-3 > 100 µM | UACC-62 > 100 µM | UO-31 > 100 µM

O=C(Nc1ccccc1Cl)c1ccc([N+](=O)[O-])cc1
inactive: A498 > 100 µM | A549 > 100 µM | COLO 205 > 100 µM | DMS-273 > 100 µM | EKVX 76.4 µM | HCC 2998 > 100 µM | HT-29 > 100 µM | IGROV-1 > 100 µM | K562 > 100 µM | KM12 > 100 µM | M14 > 100 µM | OVCAR-8 > 100 µM | SK-MEL-28 > 100 µM | SK-MEL-5 > 100 µM | SK-OV-3 > 100 µM | UACC-62 > 100 µM | UO-31 > 100 µM

Cc1ccccc1C1OC(=O)c2ccc3ccccc3c21 (stereo unspecified)
inactive: A498 2.36 µM | A549 5.48 µM | COLO 205 1.37 µM | DMS-273 3.5 µM | EKVX 7.4 µM | HCC 2998 4 µM | HOP-92 10.8 µM | HT-29 4.22 µM | IGROV-1 5 µM | K562 3.07 µM | KM12 5.6 µM | M14 2.97 µM | OVCAR-8 3.12 µM | SK-MEL-28 3.43 µM | SK-MEL-5 3.53 µM | SK-OV-3 2.52 µM | UACC-62 2.94 µM | UO-31 2.77 µM

COc1ccc(-c2oc3cc(O)c(OC)c(O)c3c(=O)c2OC2OC(CO)C(O)C(O)C2O)cc1 (stereo unspecified)
inactive: A549 > 100 µM | COLO 205 > 100 µM | DMS-273 > 100 µM | EKVX > 100 µM | HCC 2998 > 100 µM | HOP-92 > 100 µM | HT-29 > 100 µM | IGROV-1 > 100 µM | K562 > 100 µM | KM12 > 100 µM | M14 > 100 µM | OVCAR-8 91 µM | SK-MEL-28 > 100 µM | SK-MEL-5 > 100 µM | SK-OV-3 > 100 µM | UACC-62 > 100 µM | UO-31 82 µM

CSc1ccc(N2C(=O)C3c4[nH]c5ccccc5c4C4CCC(C(C)(C)C)CC4C3C2=O)cc1 (stereo unspecified)
inactive: A498 17.8 µM | A549 15.3 µM | COLO 205 10 µM | DMS-273 10.6 µM | EKVX 20.7 µM | HCC 2998 15.6 µM | HOP-92 11.3 µM | HT-29 21.8 µM | IGROV-1 13.8 µM | K562 15.9 µM | KM12 28.4 µM | M14 27.5 µM | OVCAR-8 12.1 µM | SK-MEL-28 13.8 µM | SK-MEL-5 25.8 µM | SK-OV-3 16.6 µM | UACC-62 13.8 µM | UO-31 16.5 µM

C[Si](C)(C)/C(Br)=C\CCN1C(=O)CCC1O (stereo unspecified)
inactive: A498 > 100 µM | A549 > 100 µM | COLO 205 > 100 µM | DMS-273 > 100 µM | EKVX > 100 µM | HOP-92 91.4 µM | HT-29 > 100 µM | IGROV-1 > 100 µM | K562 > 100 µM | KM12 > 100 µM | M14 > 100 µM | OVCAR-8 > 100 µM | SK-MEL-28 > 100 µM | SK-OV-3 > 100 µM | UACC-62 > 100 µM | UO-31 > 100 µM

CCOC(=O)N1C2C=C(C)C(C3C(C)C(=O)N31)N(C(=O)c1ccccc1)O2 (stereo unspecified)
inactive: A498 > 100 µM | A549 > 100 µM | COLO 205 > 100 µM | DMS-273 > 100 µM | EKVX > 100 µM | HCC 2998 > 100 µM | HOP-92 > 100 µM | HT-29 > 100 µM | IGROV-1 > 100 µM | K562 > 100 µM | KM12 > 100 µM | M14 > 100 µM | OVCAR-8 > 100 µM | SK-MEL-28 > 100 µM | SK-MEL-5 > 100 µM | SK-OV-3 > 100 µM | UACC-62 > 100 µM | UO-31 > 100 µM

C[C@H]1CC[P+](C)(c2ccccc2)C1 (stereo partly specified)
inactive: A498 > 100 µM | A549 > 100 µM | COLO 205 > 100 µM | DMS-273 > 100 µM | EKVX > 100 µM | HCC 2998 > 100 µM | HT-29 > 100 µM | IGROV-1 > 100 µM | K562 > 100 µM | KM12 > 100 µM | M14 > 100 µM | OVCAR-8 > 100 µM | SK-MEL-28 > 100 µM | SK-MEL-5 > 100 µM | SK-OV-3 > 100 µM | UACC-62 > 100 µM | UO-31 > 100 µM

NC(CNc1ccc(O)cc1)C(=O)O (stereo unspecified)
inactive: A498 > 100 µM | A549 > 100 µM | COLO 205 > 100 µM | DMS-273 > 100 µM | EKVX > 100 µM | HOP-92 > 100 µM | HT-29 > 100 µM | K562 89.1 µM | KM12 > 100 µM | M14 80.7 µM | OVCAR-8 > 100 µM | SK-MEL-28 > 100 µM | SK-MEL-5 > 100 µM | SK-OV-3 > 100 µM | UACC-62 20.9 µM | UO-31 > 100 µM

CCc1nc2c([nH]1)C(=O)c1ccccc1C2=O
inactive: A498 > 100 µM | A549 52.8 µM | DMS-273 37.1 µM | EKVX 94.4 µM | HCC 2998 31.8 µM | HT-29 43.2 µM | K562 55 µM | KM12 59.7 µM | M14 46.9 µM | OVCAR-8 57.9 µM | SK-MEL-28 > 100 µM | SK-OV-3 > 100 µM | UACC-62 29.9 µM | UO-31 80.9 µM

CCCCCCCC(=O)OCC(C[As](=O)(O)O)OC(=O)CCCCCCC (stereo unspecified)
inactive: A498 19.1 µM | A549 23 µM | COLO 205 14.3 µM | DMS-273 14.1 µM | EKVX 18.3 µM | HCC 2998 17.7 µM | HOP-92 12.7 µM | HT-29 17.1 µM | IGROV-1 13.8 µM | K562 20.6 µM | M14 15 µM | OVCAR-8 15.8 µM | SK-MEL-28 15.7 µM | SK-MEL-5 18.1 µM | SK-OV-3 15.7 µM | UACC-62 13.8 µM | UO-31 15 µM

Cc1ccc(Nc2cccc3c2C(=O)c2cccc(Nc4ccc(C)cc4S(=O)(=O)O)c2C3=O)c(S(=O)(=O)O)c1
inactive: A498 > 100 µM | A549 > 100 µM | COLO 205 > 100 µM | DMS-273 > 100 µM | EKVX > 100 µM | HCC 2998 > 100 µM | IGROV-1 > 100 µM | K562 > 100 µM | KM12 > 100 µM | M14 > 100 µM | OVCAR-8 > 100 µM | SK-MEL-28 > 100 µM | SK-MEL-5 > 100 µM | SK-OV-3 > 100 µM | UACC-62 > 100 µM | UO-31 > 100 µM

c1ccc(C2OC3(CCC[C@H]4C[C@H]43)O[C@H]2c2ccccc2)cc1 (stereo partly specified)
inactive: A498 > 100 µM | A549 43.2 µM | COLO 205 24.7 µM | DMS-273 49.4 µM | EKVX 32.8 µM | HCC 2998 39.9 µM | HOP-92 27.3 µM | HT-29 31.3 µM | IGROV-1 > 100 µM | K562 22.7 µM | KM12 29 µM | M14 43.9 µM | OVCAR-8 48 µM | SK-MEL-5 25.3 µM | SK-OV-3 > 100 µM | UACC-62 57.3 µM | UO-31 38.7 µM

CC1C=CC(O)[C@]2(CO)CC3(CCC12)OCCO3 (stereo partly specified)
inactive: A498 > 100 µM | A549 > 100 µM | DMS-273 > 100 µM | EKVX > 100 µM | HCC 2998 > 100 µM | HOP-92 > 100 µM | HT-29 > 100 µM | IGROV-1 > 100 µM | K562 > 100 µM | KM12 > 100 µM | M14 > 100 µM | OVCAR-8 > 100 µM | SK-MEL-28 > 100 µM | SK-MEL-5 > 100 µM | SK-OV-3 > 100 µM | UACC-62 > 100 µM | UO-31 > 100 µM
